Data reported in paper PMC6271425, “Synthesis and Sar Study of Diarylpentanoid Analogues as New Anti-Inflammatory Agents” (Molecules, 2014).
Entries after “also recorded” stand apart in the source; their conditions may differ. Read-outs that look alike come from different tables or passages of the source.

Legend:
[1] = system: NO production in IFN-γ/LPS-stimulated RAW 264.7 macrophages; test: NO suppression (Griess nitrite determination) in IFN-γ/LPS-stimulated RAW 264.7 macrophages; type: cell-based, murine; settings: for inhibition at 50 µM: RAW264.7, 50 µM test concentration, read-out: NO Inhibition at 50 µM (%) ± S.E.M; for NO Inhibition at 50 µM (%) ± S.E.M: 50 µM test concentration
Description: The synthesized compounds were screened for NO suppression activity in IFN-γ/LPS-stimulated RAW 264.7 macrophages at a 50 µM test concentration. […] The IC50 values of the fifty-seven bioactive compounds were determined and compared to that of the positive control, curcumin. An MTT assay was also carried out to confirm that NO inhibition was not due to cytotoxicity. […] The complete bioassay results of all the compounds are provided as Table S2 in Supplementary Data. RAW 264.7 murine macrophages cells obtained from American Type Culture Collection (ATCC, Rockville, MD, USA) were grown in Dulbecco’s Modified Eagle’s Medium (DMEM) containing 10% fetal bovine serum (FBS) and 1% penicillin/streptomycin in a 95% air and 5% CO2 atmosphere at 37 °C. RAW 264.7 cells at 90%–95% confluency were detached and seeded (50,000 cells/well) into a 96-well culture plate with 50 μL of DMEM and incubated for 24 h. The cells were then stimulated in […] of LPS (Escherichia coli, serotype 0111:B4) and 1 ng/ml of interferon-gamma (IFN-γ) in the presence or absence of test compounds for 17 h. Nitrite concentration was then determined by Griess assay by reacting 50 μL of cell culture supernatant with 50 μL of Griess reagent (1% sulfanilamide and 0.1% N-(1-naphthyl)ethylenediamine dihydrochloride in 2.5% phosphoric acid) at room temperature. The optical density was measured at 550 nm after 5 min of incubation at room temperature with a microplate reader.

[2] = Cell cytotoxicity determination (MTT assay); type: cell-based, murine; settings: mouse, RAW 264.7 macrophage cells, RAW 264.7 cells, read-out: Cytotoxicity IC50 (µM) ± S.E.M
Description: (§1) The synthesized compounds were screened for NO suppression activity in IFN-γ/LPS-stimulated RAW 264.7 macrophages at a 50 µM test concentration. […] The IC50 values of the fifty-seven bioactive compounds were determined and compared to that of the positive control, curcumin. An MTT assay was also carried out to confirm that NO inhibition was not due to cytotoxicity. […] The complete bioassay results of all the compounds are provided as Table S2 in Supplementary Data.
(§2) RAW 264.7 murine macrophages cells obtained from American Type Culture Collection (ATCC, Rockville, MD, USA) were grown in Dulbecco’s Modified Eagle’s Medium (DMEM) containing 10% fetal bovine serum (FBS) and 1% penicillin/streptomycin in a 95% air and 5% CO2 atmosphere at 37 °C.
(§3) Supernatant in each well was removed followed by addition of 100 µL DMEM. Subsequently, 20 µL of 3-(4,5-dimethylthiazol-2-yl)-2,5-diphenyltetrazolium bromide (MTT, 5 mg/mL) was then added and the plate was incubated in a 95% air and 5% CO2 atmosphere at 37 °C for 4 h. The mixture of culture media and MTT in all wells were removed and the purplish formazan crystals formed were dissolved in dimethyl sulfoxide (DMSO) and further incubated for 15 min at room temperature. The color intensity was then measured at 570 nm at room temperature.

RAW 264.7 cells = test: Cell cytotoxicity determination (MTT assay); type: cell-based, murine; settings: read-out: Cytotoxicity IC50 (µM) ± S.E.M
Description: as §1, §2, §3

[3] = Chemical stability test (UV-visible spectra in phosphate buffer pH 7.4); type: physicochemical; settings: 20 μM in phosphate buffer pH 7.4, 1% DMSO, 30 min at 5-min intervals, 25 °C
Description: Poor chemical stability of curcumin has been proven as one of the important factors, which cause its low bioavailability. Therefore, in the present study, we further tested the two best compounds (88 and 97) for their chemical stability at physiological pH and compared it to that of curcumin used as reference. The test was carried out by observing the ultraviolet spectral changes of the targeted compounds for 30 minutes with 5-minutes intervals in phosphate buffer (pH 7.4). Figure 8, Figure 9 and Figure 10 depict the ultraviolet changes of curcumin, compound 88 and compound 97, respectively.
Absorbance readings were taken from 300–600 nm using a SpectraMax Plus 384 (Molecular Devices LLC, Sunnyvale, CA, USA). A stock solution of 50 mM curcumin or active compounds 88 and 97 were prepared and diluted by phosphate buffer (pH 7.4), containing 1% dimethyl sulfoxide (DMSO), to a final concentration of 20 μM. The ultraviolet absorption spectra were collected for over 30 min at 5-min intervals at 25 °C. All spectral measurements were carried out in a 1 cm path-length quartz cuvette.

[4] = Mus musculus, IFN-γ/LPS-stimulated RAW 264.7 cells
[5] = Mus musculus, RAW264.7, IFN-γ/LPS-stimulated RAW 264.7 cells, read-out: NO Inhibition IC50 (µM) ± S.E.M
[6] = Mus musculus, RAW264.7, Table 6, NO suppression IC50 used for QSAR, unit inferred, read-out: IC50
[7] = Mus musculus, RAW264.7, −log IC50 of NO suppression, read-out: pIC50 (converted)
[8] = IFN-γ/LPS-stimulated RAW 264.7 cells
[9] = IFN-γ/LPS-stimulated RAW 264.7 cells, read-out: NO Inhibition IC50 (µM) ± S.E.M

| Compound | inhibition at 50 µM [1, 4] [%] | IC50 [1, 5] [µM] | IC50 [1, 6] [µM] | IC50 [1, 7] [µM] | IC50 [2] [µM] | IC50 (RAW 264.7 cells) [µM] | NO Inhibition at 50 µM (%) ± S.E.M [1, 8] [%] | IC50 [1, 9] [µM] | Chemical stability (ultraviolet spectral changes) [3] |
| --- | --- | --- | --- | --- | --- | --- | --- | --- | --- |
| O=C(/C=C(O)/C=C/c1ccc(Cl)s1)c1ccccc1O [Compound 17] | 63.8 ± 2.6 | 36.4 ± 1.8 | 36.4 ± 1.8 | 36.3 | 67.8 ± 2.87 | 67.9 ± 2.9 |  |  |  |
| COc1ccc(C(=O)/C=C(O)/C=C/c2ccccc2OC)c(O)c1 [Compound 48] | 66.3 ± 6.75 | 39 ± 1.24 | 39 ± 1.2 | 38.9 | 88.5 ± 2.54 | 88.6 ± 2.5 | 66.3 ± 6.8 |  |  |
| COc1ccc(O)c(C(=O)/C=C(O)/C=C/c2cccc(Cl)c2)c1 [Compound 59] | 89.1 ± 3.56 | 35.7 ± 0.789 | 35.7 ± 0.8 | 35.5 | > 100 |  | 89.1 ± 3.6 |  |  |
| COc1ccc(O)c(C(=O)/C=C(O)/C=C/c2ccccc2OC)c1 [Compound 61] | 65.8 ± 2.37 | 27.41 ± 0.207 | 27.4 ± 0.2 | 27.5 | > 100 |  | 65.8 ± 2.4 |  |  |
| COc1cccc(/C=C/C(O)=C/C(=O)c2cc(OC)ccc2O)c1 [Compound 62] | 92.6 ± 1.18 | 35.06 ± 0.165 | 35.1 ± 0.2 | 34.7 | > 100 |  | 92.6 ± 1.2 |  |  |
| COc1ccc(O)c(C(=O)/C=C(O)/C=C/c2ccc(OC)c(OC)c2)c1 [Compound 63] | 92.19 ± 0.77 | 19.8 ± 0.365 | 19.8 ± 0.4 | 20 | > 100 |  | 92.2 ± 0.8 | < 20 |  |
| COc1ccc(O)c(C(=O)/C=C(O)/C=C/c2cc(OC)c(OC)c(OC)c2)c1 [Compound 64] | 95.2 ± 1.09 | 18.4 ± 0.246 | 18.4 ± 0.2 | 18.2 | > 100 |  | 95.2 ± 1.1 | < 20 |  |
| COc1ccc(O)c(C(=O)/C=C(O)/C=C/c2ccco2)c1 [Compound 67] | 72.1 ± 3.07 | 71.5 ± 2.5 | 71.5 ± 2.5 | 70.8 | > 100 |  | 72.1 ± 3.1 |  |  |
| COc1ccc(/C=C/C(O)=C/C(=O)c2cc(OC)ccc2O)c(OC)c1 [Compound 68] | 79.5 ± 4.71 | 33.4 ± 0.695 | 33.4 ± 0.7 | 33.1 | > 100 |  | 79.5 ± 4.7 |  |  |
| COc1ccc(O)c(C(=O)/C=C(O)/C=C/c2cccs2)c1 [Compound 71] | 85 ± 2.66 | 35.6 ± 0.621 | 35.6 ± 0.6 | 35.5 | > 100 |  | 85.0 ± 2.7 |  |  |
| O=C(/C=C(O)/C=C/c1ccccc1O)c1ccccc1O [Compound 79] | 95.46 ± 0.59 | 28.9 ± 1.5 | 28.9 ± 1.5 | 28.8 | 72.6 ± 2.61 | 56.4 ± 1.2 | 95.5 ± 0.6 |  |  |
| O=C(/C=C(O)/C=C/c1cccc(O)c1)c1ccccc1O [Compound 80] | 97.22 ± 0.69 | 30.8 ± 0.722 | 30.8 ± 0.7 | 30.9 | 85 ± 1.44 | 67.3 ± 0.6 | 97.2 ± 0.7 |  |  |
| O=C(/C=C(O)/C=C/c1ccc(O)cc1)c1ccccc1O [Compound 81] | 91.5 ± 3.86 | 19.1 ± 0.644 | 19.1 ± 0.6 | 19.1 | 94.13 ± 0.917 | > 100 | 91.5 ± 3.9 | < 20 |  |
| O=C(/C=C(O)/C=C/c1ccccc1O)c1cc(Cl)ccc1O [Compound 84] | 95.2 ± 0.9 | 15.9 ± 0.947 | 15.9 ± 0.9 | 15.8 | 40.9 ± 1.63 | 53.1 ± 1 |  | < 20 |  |
| O=C(/C=C(O)/C=C/c1cccc(O)c1)c1cc(Cl)ccc1O [Compound 85] | 95.86 ± 0.45 | 26.9 ± 0.796 | 26.9 ± 0.8 | 26.9 | 53.1 ± 0.973 | 89.1 ± 1.1 | 95.9 ± 0.5 |  |  |
| O=C(/C=C(O)/C=C/c1ccc(O)cc1)c1cc(Cl)ccc1O [Compound 86] | 90.3 ± 2.66 | 18.7 ± 0.786 | 18.7 ± 0.8 | 18.6 | 89.1 ± 1.08 | 66 ± 1.2 | 90.3 ± 2.7 | < 20 |  |
| O=C(/C=C(O)/C=C/c1cc(O)ccc1O)c1cc(Cl)ccc1O [Compound 87] | 96.5 ± 1.42 | 32.3 ± 0.865 | 32.3 ± 0.9 | 32.4 | 66 ± 1.21 | 49.5 ± 1.7 | 96.5 ± 1.4 |  |  |
| O=C(/C=C(O)/C=C/c1ccccc1O)c1cc(O)ccc1O [Compound 89] | 83.6 ± 2 | 31 ± 2 |  | 30.9 | 67.3 ± 0.552 | 72.6 ± 2.6 | 83.6 ± 2.0 |  |  |
| O=C(/C=C(O)/C=C/c1cccc(O)c1)c1cc(O)ccc1O [Compound 90] | 90.9 ± 2.02 |  |  | 35.5 | > 100 | 85 ± 1.4 | 90.9 ± 2.0 |  |  |
| O=C(/C=C(O)/C=C/c1ccco1)c1cc(O)ccc1O [Compound 91] | 83.6 ± 2.84 | 75 ± 4.9 | 75 ± 4.9 | 74.1 | > 100 | 94.1 ± 0.9 | 83.6 ± 2.8 |  |  |
| O=C(/C=C(O)/C=C/c1ccccc1)c1ccc(O)cc1O [Compound 93] | 94.7 ± 2.28 | 29.9 ± 0.444 | 29.9 ± 0.4 | 30.2 | 59.46 ± 0.511 | 59.5 ± 0.5 | 94.7 ± 2.3 |  |  |
| O=C(/C=C(O)/C=C/c1cccc(O)c1)c1ccc(O)cc1O [Compound 94] | 95.4 ± 1.45 | 24.8 ± 0.4 | 24.8 ± 0.4 | 24.5 | 70.1 ± 1.8 | 70.1 ± 1.8 | 95.4 ± 1.5 |  |  |
| O=C(/C=C(O)/C=C/c1cccs1)c1ccc(O)cc1O [Compound 95] | 60.4 ± 2.04 | 44.8 ± 1.57 | 44.8 ± 1.6 | 44.7 | > 100 |  | 60.4 ± 2.0 |  |  |
| O=C(/C=C(O)/C=C/c1ccc(O)c(O)c1)c1ccccc1O [Compound 97] | 98.9 ± 1.58 | 9.56 ± 0.468 | 9.6 ± 0.5 | 9.55 | > 100 |  | 98.9 ± 1.6 |  | excellent chemical stability; also recorded: no significant changes |
